Results on 2 molecules are retold here after publication PMC11941790, “Reactions of Plasmodium falciparum Type II NADH: Ubiquinone Oxidoreductase with Nonphysiological Quinoidal and Nitroaromatic Oxidants” (International Journal of Molecular Sciences, 2025).

The structures appear in SMILES notation.

The target of assay [1] is T1, type II NADH:ubiquinone oxidoreductase (PfNDH2) (Plasmodium falciparum, UniProt Q8I302).
T1 construct: gene PF3D7_0915000; His-tagged PfNDH2 (pET45, E. coli)
T1 sequence (Q8I302 31-533): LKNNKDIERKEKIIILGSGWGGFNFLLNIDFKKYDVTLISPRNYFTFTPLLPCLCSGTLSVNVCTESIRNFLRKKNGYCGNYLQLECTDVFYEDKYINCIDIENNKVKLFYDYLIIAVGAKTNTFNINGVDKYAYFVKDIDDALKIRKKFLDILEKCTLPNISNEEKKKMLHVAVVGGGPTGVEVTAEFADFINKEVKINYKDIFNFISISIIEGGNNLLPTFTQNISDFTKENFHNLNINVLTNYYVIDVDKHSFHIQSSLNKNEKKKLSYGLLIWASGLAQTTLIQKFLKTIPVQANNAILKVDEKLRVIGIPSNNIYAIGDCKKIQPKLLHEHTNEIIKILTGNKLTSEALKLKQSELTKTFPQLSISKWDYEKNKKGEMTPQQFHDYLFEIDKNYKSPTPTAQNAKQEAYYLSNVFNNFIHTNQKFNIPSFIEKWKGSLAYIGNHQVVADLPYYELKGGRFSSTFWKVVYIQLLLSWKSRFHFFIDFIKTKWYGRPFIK
Description: steady-state kinetics, competitive product inhibition vs NADH with naphthazarin as acceptor. The format is biochemical.

The target in assay [2] is T1, type II NADH:ubiquinone oxidoreductase (PfNDH2). Description: steady-state kinetics, competitive inhibition vs NADH. The format is biochemical.

As for `NC(=O)c1ccc[n+]([C@@H]2O[C@H](COP(=O)([O-])OP(=O)(O)OC[C@H]3O[C@@H](n4cnc5c(N)ncnc54)[C@H](O)[C@@H]3O)[C@@H](O)[C@H]2O)c1` [NAD^+], the inhibition constant Ki (usually the equilibrium dissociation constant of an inhibitor or competing ligand from its target) in assay [1] turned out to be 3.7 ± 0.4 mM.

Molecule `Nc1ncnc2c1ncn2[C@@H]1O[C@H](COP(=O)(O)OP(=O)(O)OC[C@H]2OC(O)[C@H](O)[C@@H]2O)[C@@H](O)[C@H]1O` (some centres unmarked) [ADP-ribose] had a Ki in assay [2] of 2.5 ± 0.3 mM.
